Here are results for 32 compounds from ChEMBL document CHEMBL1124484, “Effects of 8-phenyl and 8-cycloalkyl substituents on the activity of mono-, di-, and trisubstituted alkylxanthines with substitution at the 1-, 3-, and 7-positions” (J Med Chem, 1989).

For experiment [1], the target named is Adenosine A2 receptor (Homo sapiens, UniProt P29275+P29274).
Description: Inhibition of the stimulation by 5'-(N-ethylcarbamoyl) adenosine of adenyl cyclase via adenosine A2 receptor in human platelet membranes.
The target of experiment [2] is T1, Adenosine receptor A1 (Rattus norvegicus, UniProt P25099).
T1 sequence (P25099 whole entry): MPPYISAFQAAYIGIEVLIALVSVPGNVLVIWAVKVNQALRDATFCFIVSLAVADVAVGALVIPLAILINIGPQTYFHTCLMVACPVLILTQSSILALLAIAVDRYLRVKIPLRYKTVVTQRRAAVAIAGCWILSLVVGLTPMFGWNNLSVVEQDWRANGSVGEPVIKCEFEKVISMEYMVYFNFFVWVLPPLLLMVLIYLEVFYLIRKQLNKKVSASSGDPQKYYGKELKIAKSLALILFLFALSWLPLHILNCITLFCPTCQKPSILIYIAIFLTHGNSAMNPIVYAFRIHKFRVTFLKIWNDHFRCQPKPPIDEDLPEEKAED
As to the kind of experiment: Inhibition of 1 nM [3H]- N6-(phenylisopropyl) adenosine binding to Adenosine A1 receptor in rat cerebral cortical membranes. Type of experiment: cell membranes, Membrane.

For experiment [3], the target named is T1, Adenosine receptor A1. As to the kind of experiment: Inhibition of 1 nM [3H]- N6 -(phenylisopropyl) adenosine binding to Adenosine A1 receptor in rat fat cell membrane. The format is cell-based.
Experiment [4] has as its target Adenosine A2 receptor (Rattus norvegicus, UniProt P29276+P30543). As to conditions: pc-12; call rule not given here.
Experiment [5] addresses T1, Adenosine receptor A1. In words: Inhibition of […] nM [3H]- N6- (phenylisopropyl) adenosine binding to Adenosine A1 receptor in rat cerebral cortical membranes; I = Inactive. Type of experiment: cell membranes, Membrane.
The target in experiment [6] is T1, Adenosine receptor A1. As to the kind of experiment: Inhibition of N6-(phenylisopropyl)adenosine-elicited inhibition of adenylate cyclase at Adenosine A1 receptor in rat fat cell membrane; I =inactive.
For experiment [7], the target named is T1, Adenosine receptor A1. In words: Inhibition of […] nM [3H]- N6- (phenylisopropyl) adenosine binding to A1 adenosine receptor in rat cerebral cortical membranes. Type of experiment: cell membranes, Membrane.
Experiment [8] concerns the target T1, Adenosine receptor A1. As to the kind of experiment: Inhibition of N6-(phenylisopropyl)adenosine-elicited inhibition of adenylate cyclase at A1 adenosine receptor in rat fat cell membrane.
In experiment [9] the target is T1, Adenosine receptor A1. As to the kind of experiment: Inhibition of […] nM [3H]- N6- (phenylisopropyl) adenosine binding to Adenosine A1 receptor.

As for `Cn1c(=O)c2nc(-c3ccc(C(=O)O)cc3)[nH]c2n(C)c1=O`, the Ki (as a rule, the dissociation constant of the complex between target and ligand, obtained from inhibition or displacement) at Adenosine A2 receptor [1] is 1500 nM.

As to `CCCn1c(=O)c2nc[nH]c2n(CCC)c1=O`, the results for the Ki on Adenosine receptor A1 [2] and at Adenosine receptor A1 [3] were 710 nM and 1600 nM, respectively.

`CCCn1c(=O)c2[nH]c(-c3ccccc3)nc2n(CCC)c1=O`: the affinity on Adenosine receptor A1 [3], expressed as Ki, was 5.9 nM.

As for `CC(C)CCn1c(=O)c2nc(-c3ccccc3)[nH]c2n(CC(C)C)c1=O`, the Ki on Adenosine A2 receptor [1] was 2300 nM.

As for `CCCn1c(=O)c2c(nc(-c3ccc(S(=O)(=O)O)cc3)n2C)n(CCC)c1=O`, the inhibitory constant (Ki) at Adenosine receptor A1 [2] turned out to be 15000 nM; on Adenosine A2 receptor [1], 2100 nM; at Adenosine A2 receptor [4], 5600 nM; at Adenosine receptor A1 [3], 4900 nM.

For the compound `CC(C)CCn1c(=O)c2nc[nH]c2n(CC(C)C)c1=O`, the Ki at Adenosine receptor A1 [2] stood at 1600 nM; at Adenosine A2 receptor [1], 6500 nM.

Take `CCCn1c(=O)[nH]c(=O)c2[nH]c(-c3ccccc3)nc21`: the figures for the Ki on Adenosine receptor A1 [2] and at Adenosine A2 receptor [1] were 9800 nM and 11000 nM, respectively.

`Cn1c(=O)c2c(nc(-c3ccc(C(=O)O)cc3)n2C)n(C)c1=O`: the Ki at Adenosine receptor A1 [2] was 61000 nM; on Adenosine A2 receptor [1], 150000 nM.

In the case of `Cn1c(=O)c2c(nc(-c3ccc(S(=O)(=O)O)cc3)n2C)n(C)c1=O`, the inhibition constant Ki is 57000 nM at Adenosine A2 receptor [1], 150000 nM at Adenosine A2 receptor [4], “Not Active” at Adenosine receptor A1 [5] and “Not Active” at Adenosine receptor A1 [6].

With `Cn1c(=O)c2c(nc(-c3ccccc3)n2C)n(C)c1=O`, the inhibition constant (Ki) on Adenosine receptor A1 [2] amounted to 15000 nM; on Adenosine A2 receptor [1] it was 14000 nM.

As to `COC(=O)c1ccc(-c2nc3c(c(=O)n(C)c(=O)n3C)n2C)cc1`, the Ki on Adenosine receptor A1 [2] came out at 43000 nM; at Adenosine A2 receptor [1] it was 25000 nM.

Regarding `CCCn1c(=O)[nH]c(=O)c2[nH]c(C3CCCCC3)nc21`, the inhibitory constant (Ki) turned out to be 850 nM on Adenosine receptor A1 [2] and 1100 nM at Adenosine A2 receptor [1].

Regarding `CCCn1c(=O)c2c(nc(-c3ccc(C(=O)OC)cc3)n2C)n(CCC)c1=O`, the inhibition constant Ki on Adenosine receptor A1 [2] worked out at 3100 nM; on Adenosine A2 receptor [1] it was 26000 nM.

Take `CCCn1c(=O)c2c(nc(C3CCCCC3)n2C)n(CCC)c1=O`: the inhibitory constant (Ki) on Adenosine A2 receptor [1] stood at 85 nM; on Adenosine A2 receptor [4], 1000 nM; on Adenosine receptor A1 [3], 4200 nM.

Compound `CCCn1c(=O)c2c(nc(C3CCCC3)n2C)n(CCC)c1=O` registered a Ki on Adenosine A2 receptor [1] of 220 nM.

Consider `CCCn1c(=O)c2c(nc(-c3ccccc3)n2C)n(CCC)c1=O`, for which the inhibition constant (Ki) at Adenosine receptor A1 [2] was 2300 nM; on Adenosine A2 receptor [1], 2400 nM.

As to `CCCn1c(=O)[nH]c2[nH]c(-c3ccccc3)nc2c1=O`, the Ki on Adenosine receptor A1 [2] was found to be 67 nM; on Adenosine A2 receptor [1], 20 nM; at Adenosine A2 receptor [4] it was 73 nM; on Adenosine receptor A1 [3] it was 36 nM.

`CCCn1c(=O)c2c(nc(-c3ccc(C(=O)O)cc3)n2C)n(CCC)c1=O`: the values for the Ki on Adenosine receptor A1 [2] and on Adenosine A2 receptor [1] were 4800 nM and 13000 nM, respectively.

Regarding `CCCn1c(=O)c2c(ncn2C)n(CCC)c1=O`, the Ki amounted to 3400 nM on Adenosine receptor A1 [2], 2800 nM at Adenosine A2 receptor [1], 5300 nM on Adenosine A2 receptor [4] and 12000 nM at Adenosine receptor A1 [3].

As to `CC(C)CCn1c(=O)c2nc(-c3ccc(S(=O)(=O)O)cc3)[nH]c2n(CC(C)C)c1=O`, the inhibitory constant (Ki) on Adenosine receptor A1 [2] amounted to 1200 nM; at Adenosine A2 receptor [1] it was 520 nM.

As to `CCCn1c(=O)[nH]c(=O)c2[nH]c(-c3ccc(C(=O)O)cc3)nc21`, the Ki at Adenosine receptor A1 [2] turned out to be 57000 nM; at Adenosine A2 receptor [1], 14000 nM.

Regarding `CCCn1c(=O)[nH]c(=O)c2[nH]c(-c3ccc(S(=O)(=O)O)cc3)nc21`, the Ki at Adenosine receptor A1 [2] came out at 58000 nM; at Adenosine A2 receptor [1], 2700 nM; on Adenosine A2 receptor [4], 17000 nM; at Adenosine receptor A1 [3], 33000 nM.

On Adenosine A2 receptor [1], `Cn1c(=O)c2c(nc(C3CCCCC3)n2C)n(C)c1=O` gave a Ki of 190 nM.

With `Cn1c(=O)c2nc(C3CCCCC3)[nH]c2n(C)c1=O`, the Ki was 110 nM on Adenosine receptor A1 [2], 150 nM on Adenosine A2 receptor [1], 450 nM at Adenosine A2 receptor [4] and 41 nM at Adenosine receptor A1 [3].

Consider `CCCn1c(=O)c2nc(-c3ccc(S(=O)(=O)O)cc3)[nH]c2n(CCC)c1=O`, for which the Ki on Adenosine receptor A1 [2] came to 140 nM; on Adenosine A2 receptor [1] it was 1900 nM; at Adenosine A2 receptor [4], 11000 nM; on Adenosine receptor A1 [3], 430 nM.

`Cn1c(=O)c2c(nc(C3CCCC3)n2C)n(C)c1=O`: the inhibitory constant (Ki) stood at 33000 nM on Adenosine receptor A1 [2], 2400 nM on Adenosine A2 receptor [1], 3800 nM on Adenosine A2 receptor [4] and 14900 nM on Adenosine receptor A1 [3].

In turn, `CCCn1c(=O)c2nc(-c3ccc(C(=O)O)cc3)[nH]c2n(CCC)c1=O` yielded a Ki at Adenosine receptor A1 [2] of 200 nM.

Consider `Cn1c(=O)c2nc(-c3ccc(S(=O)(=O)O)cc3)[nH]c2n(C)c1=O`, for which the inhibitory constant (Ki) amounted to 5500 nM on Adenosine A2 receptor [1] and 5000 nM on Adenosine A2 receptor [4].

As to `Cn1c(=O)[nH]c2[nH]c(-c3ccccc3)nc2c1=O`, the inhibition constant (Ki) on Adenosine A2 receptor [1] worked out at 860 nM; at Adenosine A2 receptor [4], 250 nM; at Adenosine receptor A1 [7], 300 nM; on Adenosine receptor A1 [8] it was 130 nM.

`Cn1c(=O)[nH]c2[nH]cnc2c1=O` [1-METHYLXANTHINE]: the inhibition constant (Ki) is 17000 nM at Adenosine receptor A1 [9] and 1900 nM at Adenosine A2 receptor [1].

`Cn1c(=O)[nH]c(=O)c2[nH]cnc21` [3-METHYLXANTHINE]: the inhibition constant Ki on Adenosine receptor A1 [2] amounted to 35000 nM; at Adenosine A2 receptor [1] it was 240000 nM.

For `Cn1c(=O)c2nc(-c3ccccc3)[nH]c2n(C)c1=O` [8-PHENYL THEOPHYLLINE], the inhibition constant (Ki) at Adenosine A2 receptor [1] came to 1900 nM; on Adenosine A2 receptor [4], 1600 nM.
